Like-named read-outs stand apart in the source and are kept apart here.
Columns and labels:
full-length human PLD2 = full-length human PLD2 (Homo sapiens (Human), UniProt O14939); assay: Evaluation of human PLD2 enzyme inhibitory activity (Amplex Red / choline oxidase fluorescence); assay type: biochemical
Outline: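 Enzyme was N-terminal FLAG-tagged full-length human PLD2 (1-933), expressed in Expi293F cells and anti-FLAG purified. Compound (5% DMSO final) was incubated with enzyme (6 nmol/L solution) and 1,2-diheptanoyl-PC (6 mmol/L solution) in HEPES pH 7.5, KCl, EGTA, MgCl2, NP-40, BSA buffer for 60 min at room temperature. Choline was detected with Amplex Red/choline oxidase/HRP.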

full-length human PLD1 = full-length human PLD1 (Homo sapiens (Human), UniProt Q13393); assay: Evaluation of human PLD1 enzyme inhibitory activity (Amplex Red / choline oxidase fluorescence); assay type: biochemical
Sequence of full-length human PLD1 (Q13393 other isoform, or with tags, fused parts or gaps): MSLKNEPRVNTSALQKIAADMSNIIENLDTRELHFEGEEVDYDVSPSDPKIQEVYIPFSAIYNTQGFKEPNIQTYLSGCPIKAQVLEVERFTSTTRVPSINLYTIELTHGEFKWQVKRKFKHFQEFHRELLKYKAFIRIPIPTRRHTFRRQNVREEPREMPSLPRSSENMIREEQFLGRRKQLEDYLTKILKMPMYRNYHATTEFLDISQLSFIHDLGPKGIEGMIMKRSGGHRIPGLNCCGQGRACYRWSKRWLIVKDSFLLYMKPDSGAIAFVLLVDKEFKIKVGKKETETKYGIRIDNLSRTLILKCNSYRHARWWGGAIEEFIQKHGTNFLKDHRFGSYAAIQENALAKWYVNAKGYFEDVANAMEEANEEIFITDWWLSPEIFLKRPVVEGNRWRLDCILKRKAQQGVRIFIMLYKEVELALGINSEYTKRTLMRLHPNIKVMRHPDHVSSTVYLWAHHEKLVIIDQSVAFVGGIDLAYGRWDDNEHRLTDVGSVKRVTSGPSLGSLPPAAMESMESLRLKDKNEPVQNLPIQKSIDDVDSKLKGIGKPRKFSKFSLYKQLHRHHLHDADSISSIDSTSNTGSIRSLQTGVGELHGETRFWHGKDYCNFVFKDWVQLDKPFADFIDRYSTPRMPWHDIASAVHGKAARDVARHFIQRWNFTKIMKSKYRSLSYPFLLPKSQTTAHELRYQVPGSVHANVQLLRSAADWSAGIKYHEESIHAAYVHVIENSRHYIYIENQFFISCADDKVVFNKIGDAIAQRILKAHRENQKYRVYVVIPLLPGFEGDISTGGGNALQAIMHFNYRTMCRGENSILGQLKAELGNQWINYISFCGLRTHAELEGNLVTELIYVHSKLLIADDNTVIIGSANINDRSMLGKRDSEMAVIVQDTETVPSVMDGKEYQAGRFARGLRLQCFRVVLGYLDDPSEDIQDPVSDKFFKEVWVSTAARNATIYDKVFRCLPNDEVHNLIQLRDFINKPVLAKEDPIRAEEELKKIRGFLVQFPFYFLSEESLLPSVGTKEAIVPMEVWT
Outline: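 N-terminally FLAG-tagged full-length human PLD1 (1-1036), expressed in Expi293F and FLAG-purified, incubated with compound (5% DMSO final) and 1,2-diheptanoyl-sn-glycero-3-phosphocholine for 60 min at room temperature in HEPES pH 7.5 buffer. Released choline detected by Amplex Red/choline oxidase/HRP fluorescence.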

[1] = full-length human PLD2 enzyme, read-out: PLD2 IC50
[2] = full-length human PLD1 enzyme, read-out: PLD1 IC50
[3] = column 2 of continuation tables 2-12 to 2-14, read-out: human PLD2 enzyme inhibitory activity IC50
[4] = column 1 of continuation tables 2-12 to 2-14, read-out: human PLD1 enzyme inhibitory activity IC50

Sequence of full-length human PLD2 (O14939 whole entry): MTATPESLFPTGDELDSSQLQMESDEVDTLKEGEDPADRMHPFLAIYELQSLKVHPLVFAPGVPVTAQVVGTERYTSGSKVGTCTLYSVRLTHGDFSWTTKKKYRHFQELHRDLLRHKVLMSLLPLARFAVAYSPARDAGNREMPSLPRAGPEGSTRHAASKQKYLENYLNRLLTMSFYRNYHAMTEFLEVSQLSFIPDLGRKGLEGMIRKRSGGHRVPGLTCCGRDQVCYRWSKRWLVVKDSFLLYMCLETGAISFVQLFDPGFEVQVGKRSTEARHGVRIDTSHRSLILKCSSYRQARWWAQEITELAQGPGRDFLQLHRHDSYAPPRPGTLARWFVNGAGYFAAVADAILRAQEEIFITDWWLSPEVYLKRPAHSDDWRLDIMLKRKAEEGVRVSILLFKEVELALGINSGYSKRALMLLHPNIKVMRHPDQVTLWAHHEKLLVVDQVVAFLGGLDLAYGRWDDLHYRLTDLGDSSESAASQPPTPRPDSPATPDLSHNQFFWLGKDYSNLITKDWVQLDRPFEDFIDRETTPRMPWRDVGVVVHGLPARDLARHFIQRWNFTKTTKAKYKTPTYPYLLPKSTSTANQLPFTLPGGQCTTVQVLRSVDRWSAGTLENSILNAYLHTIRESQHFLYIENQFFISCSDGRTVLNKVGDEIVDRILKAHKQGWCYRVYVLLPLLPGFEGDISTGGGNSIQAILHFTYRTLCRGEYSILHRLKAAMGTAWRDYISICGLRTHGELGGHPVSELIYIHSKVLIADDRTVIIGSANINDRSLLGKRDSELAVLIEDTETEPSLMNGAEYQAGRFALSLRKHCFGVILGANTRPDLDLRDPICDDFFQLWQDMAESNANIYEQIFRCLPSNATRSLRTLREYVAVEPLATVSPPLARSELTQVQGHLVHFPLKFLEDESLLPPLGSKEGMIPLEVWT

Row | SMILES | IC50 (full-length human PLD2; [1]) [nM] | IC50 (full-length human PLD1; [2]) [nM] | IC50 (full-length human PLD2; [3]) [nM] | IC50 (full-length human PLD1; [4]) [nM]
1 | Cc1cc(C(=O)N[C@@H](C)CN2CCC3(CC2)OC(=O)NN=C3c2ccc(F)cc2Cl)no1 [Example 98] | 78 | 57 |  | 
2 | C[C@@H](C[C@H]1CC[C@]2(CC1)OC(=O)NN=C2c1ccc(S(C)(=O)=O)cc1Br)NC(=O)c1cc(Cl)no1 [Example 48] | < 10 | 14 |  | 
3 | Cc1cc(C(=O)N[C@@H](C)C[C@H]2CC[C@]3(CC2)OC(=O)NN=C3c2cnc(Cl)cc2N2CCC(F)(F)C2)[nH]n1 [Example 223] | 246 | 396 |  | 
4 | CNC(=O)C(=O)N[C@@H](C)C[C@]1(C#N)CC[C@@]2(CC1)OC(=O)NN=C2c1cc(C#N)ccc1Br [Example 2-040] | < 10 | 21 |  | 
5 | CNC(=O)C(=O)N[C@@H](C)C[C@H]1CC[C@]2(CC1)OC(=O)NN=C2c1ccc(F)cc1C1CC1 [Example 64] | < 10 | 18 |  | 
6 | CNC(=O)C(=O)NC[C@@H](C)N1CCC2(CC1)OC(=O)NN=C2c1ccc(C#N)cc1Br [Example 330] | 26 | 3150 |  | 
7 | CNC(=O)C(=O)N[C@@H](C)C[C@H]1CC[C@]2(CC1)OC(=O)NN=C2c1cc(OCC(F)(F)F)ccc1Br [Example 296] | < 10 | 13 |  | 
8 | CNC(=O)C(=O)N[C@@H](C)C[C@H]1CC[C@]2(CC1)OC(=O)NN=C2c1cnc(N2CCC2)cc1C [Example 159] | < 10 | 28 |  | 
9 | C[C@@H](CN1CCC2(CC1)OC(=O)NN=C2c1cc(C#N)ccc1Br)NC(=O)c1ccccc1C(F)(F)F [Example 2-029] | 8410 | 1510 |  | 
10 | CNC(=O)N[C@@H](C)C[C@H]1CC[C@]2(CC1)OC(=O)NN=C2c1ccc(F)cc1I [Example 183] | 107 | 42 |  | 
11 | CNC(=O)C(=O)N[C@@H](C)C[C@H]1CC[C@]2(CC1)OC(=O)NN=C2c1ccc(C#N)c(C)c1 [Example 205] | 102 | 35 |  | 
12 | C[C@@H](C[C@H]1CC[C@]2(CC1)OC(=O)NN=C2c1cccc(C#N)c1Br)NC(=O)C(=O)NC1CC1 [Example 316] | 61 | 46 |  | 
13 | CNC(=O)C(=O)N[C@@H](C)[C@H](C)[C@H]1CC[C@]2(CC1)OC(=O)NN=C2c1cc(C#N)ccc1Br [Example 338] | < 10 | 24 |  | 
14 | C[C@@H](C[C@H]1CC[C@]2(CC1)OC(=O)NN=C2c1ccc(F)cc1Br)NC(=O)[C@@H](C)O [Example 28] | 303 | 341 |  | 
15 | [2H]C([2H])([2H])NC(=O)C(=O)N[C@@H](C)C[C@]1(C#N)CC[C@@]2(CC1)OC(=O)NN=C2c1ccc(F)cc1Br [Example 2-134] |  |  | < 10 | 18
16 | CC(C)S(=O)(=O)c1ccc(C2=NNC(=O)O[C@]23CC[C@@H](C[C@H](C)NC(=O)c2cc(Cl)no2)CC3)c(Br)c1 [Example 67] | < 10 | < 10 |  | 
17 | CNC(=O)C(=O)N[C@@H](C)C[C@H]1CC[C@]2(CC1)OC(=O)NN=C2c1ccc(C#N)cc1C [Example 152] | 13 | 23 |  | 
18 | COc1cc(C)c(C2=NNC(=O)O[C@]23CC[C@@H](C[C@H](C)NC(=O)c2cc(C)n[nH]2)CC3)cn1 [Example 160] | 17 | 26 |  | 
19 | Cc1ncccc1C1=NNC(=O)O[C@]12CC[C@@H](C[C@H](C)NC(=O)c1cc3ccccc3o1)CC2 [Example 104] | 217 | 75 |  | 
20 | C[C@@H](CN1CCC2(CC1)OC(=O)NN=C2c1cc(C#N)ccc1Br)NC(=O)/C=C/C(=O)ON1C(=O)CCC1=O [Example 2-042] | 383 | 3020 |  | 
21 | Cc1cc(C(=O)N[C@@H](C)CN2CCC3(CC2)OC(=O)NN=C3c2ccc(C#N)cc2Br)on1 [Example 2-062] | 25 | 25 |  | 
22 | C[C@@H](C[C@H]1CC[C@]2(CC1)OC(=O)NN=C2c1ccc(OC(F)(F)F)cc1Br)NC(=O)NC1CC1 [Example 195] | 67 | 39 |  | 
23 | [2H]C([2H])([2H])NC(=O)C(=O)N[C@@H](C)C[C@]1(OC)CC[C@@]2(CC1)OC(=O)NN=C2c1cccc(C(F)(F)F)c1Br [Example 2-129] |  |  | < 10 | 25
24 | Cc1cc(C(=O)N[C@@H](C)CN2CCC3(CC2)OC(=O)NN=C3c2ccc(F)cc2Br)[nH]n1 [Example 3] | < 10 | 27 |  | 
25 | Cc1cc(C(=O)N[C@@H](C)C[C@H]2CC[C@]3(CC2)OC(=O)NN=C3c2cnc(N3C[C@@H]4C[C@H]3CO4)cc2Cl)[nH]n1 [Example 240] | < 10 | 13 |  | 
26 | [2H]C([2H])([2H])NC(=O)C(=O)N[C@@H](C)C[C@H]1CC[C@]2(CC1)OC(=O)NN=C2c1cc(C#N)ccc1Br [Example 2-073] | 2 | 14 |  | 
27 | COC(=O)N[C@@H](C)C[C@H]1CC[C@]2(CC1)OC(=O)NN=C2c1ccc(F)cc1C [Example 156] | 412 | 236 |  | 

Row | SMILES | IC50 (full-length human PLD2; [1]) [nM] | IC50 (full-length human PLD1; [2]) [nM] | IC50 (full-length human PLD2; [3]) [nM] | IC50 (full-length human PLD1; [4]) [nM]
28 | CNC(=O)C(=O)N[C@@H](C)C[C@H]1CC[C@]2(CC1)OC(=O)NN=C2c1ccccc1C [Example 119] | < 10 | 11 |  | 
29 | CNC(=O)C(=O)N[C@@H](C)C[C@H]1CC[C@]2(CC1)OC(=O)NN=C2c1nccn1CC1CC1 [Example 82] | 358 | 421 |  | 
30 | CC(C)=CC(=O)N[C@@H](C)CN1CCC2(CC1)OC(=O)NN=C2c1cc(C#N)ccc1Br [Example 2-022] | 388 | 738 |  | 
31 | [2H]C([2H])([2H])NC(=O)C(=O)N[C@@H](C)C[C@]1(C#N)CC[C@@]2(CC1)OC(=O)NN=C2c1cccc(F)c1Br [Example 2-152] |  |  | < 10 | 16
32 | CNC(=O)C(=O)N[C@@H](C)CN1CCC2(CC1)OC(=O)NN=C2c1cccc(C(F)(F)F)c1Br [Example 2-051] | < 10 | 25 |  | 
33 | C[C@@H](C[C@H]1CC[C@]2(CC1)OC(=O)NN=C2c1ccc(F)cc1Cl)NC(=O)c1cc2ccccc2o1 [Example 46] | < 10 | 12 |  | 
34 | C[C@@H](C[C@H]1CC[C@]2(CC1)OC(=O)NN=C2c1nccn1CC1CC1)NC(=O)c1cc2ccccc2o1 [Example 84] | 53 | 70 |  | 
35 | Cc1cc(C(=O)NC[C@@H](C)N2CCC3(CC2)OC(=O)NN=C3c2ccc(C#N)cc2Br)[nH]n1 [Example 332] | 15 | 2600 |  | 
36 | CNC(=O)C(=O)N[C@@H](C)C[C@H]1CC[C@]2(CC1)OC(=O)NN=C2c1ccc(C(C)(C)O)cc1C [Example 178] | 17 | 14 |  | 
37 | C[C@@H](CN1CCC2(CC1)OC(=O)NN=C2c1ccc(S(C)(=O)=O)cc1Cl)NC(=O)c1cc2cc(F)ccc2o1 [Example 116] | 37 | 43 |  | 
38 | CNC(=O)C(=O)N[C@@H](C)C[C@H]1CC[C@]2(CC1)OC(=O)NN=C2c1ncccc1Br [Example 2-013] | < 10 | 12 |  | 
39 | Cc1cc(C(=O)N[C@@H](C)CN2CCC3(CC2)OC(=O)NN=C3c2cc(Br)c(F)cc2Cl)[nH]n1 [Example 2-016] | < 10 | 19 |  | 
40 | CNC(=O)C(=O)N[C@@H](C)C[C@H]1CC[C@]2(CC1)OC(=O)NN=C2c1cc(C#N)ccc1C [Example 287] | < 10 | 13 |  | 
41 | CNC(=O)C(=O)N[C@@H](C)C[C@H]1CC[C@]2(CC1)OC(=O)NN=C2c1cnc(OCC(F)(F)F)cc1C [Example 170] | < 10 | 19 |  | 
42 | CNC(=O)C(=O)N[C@@H](C)CN1CCC2(CC1)OC(=O)NN=C2c1ccc(Cl)cc1C [Example 216] | 19 | 29 |  | 
43 | Cc1cc(F)ccc1C1=NNC(=O)O[C@]12CC[C@@H](C[C@H](C)NC(=O)c1ccc(Cl)cc1F)CC2 [Example 88] | 65 | 56 |  | 
44 | CNC(=O)C(=O)N[C@@H](C)CN1CCC2(CC1)OC(=O)NN=C2c1cc(C#N)ccc1Cl [Example 2-006] | 11 | 56 |  | 
45 | CNC(=O)C(=O)N[C@@H](C)C[C@]1(C#N)CC[C@@]2(CC1)OC(=O)NN=C2c1cc(C(F)(F)F)ccc1Br [Example 2-066] | < 10 | 15 |  | 
46 | COc1cc(C)c(C2=NNC(=O)O[C@]23CC[C@@H](C[C@H](C)NC(=O)NCc2ccccc2F)CC3)cn1 [Example 234] | 474 | 247 |  | 
47 | CNC(=O)C(=O)N[C@@H](C)[C@H](C)N1CCC2(CC1)OC(=O)NN=C2c1ccc(F)cc1Br [Example 289] | < 10 | 18 |  | 
48 | [2H]C([2H])([2H])NC(=O)C(=O)N[C@@H](C)C[C@]1(C#N)CC[C@@]2(CC1)OC(=O)NN=C2c1ccccc1Br [Example 2-164] |  |  | < 10 | < 10
49 | CNC(=O)C(=O)N[C@@H](C)C[C@H]1CC[C@]2(CC1)OC(=O)NN=C2c1ccc(OCC(F)(F)F)cc1Br [Example 86] | < 10 | 13 |  | 
50 | CCCS(=O)(=O)c1ccc(C2=NNC(=O)O[C@]23CC[C@@H](C[C@H](C)NC(=O)C(=O)NC)CC3)c(Cl)c1 [Example 77] | < 10 | 26 |  | 
51 | CNC(=O)C(=O)N[C@@H](C)C[C@H]1CC[C@]2(CC1)OC(=O)NN=C2c1cccc(C#N)c1Br [Example 315] | 24 | 25 |  | 
52 | [2H]C([2H])([2H])NC(=O)C(=O)N[C@@H](C)CN1CCC2(CC1)OC(=O)NN=C2c1cc(C#N)ccc1Br [Example 2-001] | < 10 | 41 |  | 
53 | C[C@@H](C[C@H]1CC[C@]2(CC1)OC(=O)NN=C2c1cccnc1)NC(=O)c1cc2cc(F)ccc2[nH]1 [Example 15] | < 10 | 25 |  | 

— US20240101572A1, “DIHYDROOXADIAZINONE COMPOUND AND PHARMACEUTICAL USE THEREOF” (Japan Tobacco Inc., priority 2022, published 2024)
